The values that follow come from patent US7173134B2, “Selective RXR ligands” (SmithKline Beecham Corporation, priority 2001, dated 2007).

SMILES strings stand for the structures.

The target of test [1] is T1, full length human RXRα (Homo sapiens, UniProt P19793).
T1 construct: These cells were transfected with full length human RXRα; expressed in transfected cells; host or cells: CV-1 (monkey kidney cell line)
T1 sequence (P19793 1-462): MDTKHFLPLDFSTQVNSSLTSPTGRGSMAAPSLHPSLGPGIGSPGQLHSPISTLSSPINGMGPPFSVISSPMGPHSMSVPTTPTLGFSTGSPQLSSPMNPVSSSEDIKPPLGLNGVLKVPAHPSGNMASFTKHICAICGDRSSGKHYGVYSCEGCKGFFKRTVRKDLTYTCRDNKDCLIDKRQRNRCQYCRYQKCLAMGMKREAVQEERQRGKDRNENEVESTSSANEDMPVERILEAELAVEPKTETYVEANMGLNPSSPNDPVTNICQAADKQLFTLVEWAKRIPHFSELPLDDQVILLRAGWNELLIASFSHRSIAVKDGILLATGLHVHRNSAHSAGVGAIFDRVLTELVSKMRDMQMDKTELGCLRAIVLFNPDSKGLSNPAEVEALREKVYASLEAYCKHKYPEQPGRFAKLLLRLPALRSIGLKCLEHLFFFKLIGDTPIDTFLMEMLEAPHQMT
Description: Transient transfection assay in CV-1 cells (CRBP II-tk-SPAP reporter). The format is cell-based. The following applies: CV-1 cells transfected with human RXRα and CRBP II-tk-SPAP reporter; 24 h incubation; SPAP activity. As for the experimental part:
Transcriptional activity of the compounds was measured in a monkey kidney cell line (CV-1). These cells were transfected with full length human RXRα and the natural response element, cellular retinol binding protein type II in a reporter gene construct, (CRBP II-tk-SPAP), consisting of HSV tk promoter, and the secreted placental alkaline phosphatase reporter gene. CV-1 cells were plated at a density of 24,000 cells per well in high glucose DMEM supplemented with 10% charcoal/dextran-treated FBS. Transfection mixes contained 4 ng of receptor expression vector, 8 ng of reporter plasmid, 25 ng of β-galactosidase expression vector (used as an internal control), and 43 ng of carrier plasmid. Transfections were performed with Lipofectamine according to the manufacturer's instructions. Drug dilutions were prepared in phenol red-free DMEM/F-12 with 15 mM HEPES supplemented with 10% charcoal-stripped, delipidated calf serum. Cells were incubated for 24 h in the presence of drugs, after which the medium was sampled and assayed for SPAP activity.
B-galactosidase, which measures transfection efficiency activity, was determined by using 3.6 mM o-nitrophenyl-D-galactopyranoside in 0.1 M sodium phosphate pH 7.2 buffer containing 0.13% Triton X-100 as substrate. These plates were read on a Molecular Devices Vmax spectrophotometer, at a 405 nm endpoint reading. Data were reduced using RoboFit.
The results were expressed as percent of maximum or fold activation calculated by the following formulas: fold activation=(((SPAP−SPAPsubstrate blank avg.)/(β-gal−β-gal substrate blank avg.))−DMSO vehicle avg.)/DMSO vehicle avg, and % max.=(fold activation of unknown/positive control fold activation avg.)×100.

Test [2] deals with T2, hRXRα (Homo sapiens, UniProt P19793).
T2 construct: polyhistidine (N); made in house; host or cells: E. coli
T2 sequence (P19793 227-458 limits assumed): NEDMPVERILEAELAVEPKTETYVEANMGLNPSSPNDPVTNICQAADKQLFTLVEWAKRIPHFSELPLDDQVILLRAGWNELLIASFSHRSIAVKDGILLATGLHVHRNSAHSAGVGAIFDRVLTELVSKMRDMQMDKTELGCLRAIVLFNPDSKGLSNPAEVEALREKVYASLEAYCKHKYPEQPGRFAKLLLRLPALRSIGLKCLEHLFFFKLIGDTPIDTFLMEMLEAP
The test is described as follows: Scintillation Proximity Assay (SPA) binding assay, 9-cis[3H]-retinoic acid radioligand. The following applies: RXRα ligand binding domain on SPA beads; radioligand 9-cis[3H]-retinoic acid; read-out: Apparent pKi (converted). As for the experimental part:
The compounds were tested for their ability to bind to hRXRα using a Scintillation Proximity Assay (SPA) as is known in the art. The RXRα ligand binding domain (LBD) was expressed in E. coli as an amino-terminal polyhistidine tagged fusion protein. The LBD was then labeled with biotin and immobilized on streptavidin-modified scintillation proximity beads.
9-cis[3H]-Retinoic acid (9-cis) was the radioligand used for the assay. To each well to be assayed was added the desired concentration of the previously prepared solution of 9-cis previously incubated with receptor-coated SPA bead slurry. The plates were incubated for at least 1 hour at room temperature and bound radioactivity for each well was determined in a Wallac 1450 Microbeta counter.
In this specification, pKi=−log of the concentration of the test compound required to achieve an apparent Ki value according to the equation Ki=IC50/1+[L]/Kd, where IC50=the concentration of test compound required to inhibit 50% of the specific binding of the radioligand, [L] is the concentration of the radioligand used, and Kd is the dissociation constant for the radioligand at the receptor.

`COc1cc2c(cc1Cc1coc(/C=C/C(=O)O)c1)C(C)(C)CCC2(C)C` [Example 19, (2E)-3-{4-[(3-Methoxy-5,5,8,8-tetramethyl-5,6,7,8-tetrahydro-2-naphthalenyl)methyl]-2-furyl}-2-propenoic acid] had an EC50 in test [1] above 1 µM. Further, in test [2], the Ki was above 1 µM.

As to `CC1(C)CCC(C)(C)c2cc(C3CCCc4oc(C(=O)O)cc43)ccc21` (stereo not drawn) [Example 13, 4-(5,5,8,8-Tetramethyl-5,6,7,8-tetrahydro-2-naphthalenyl)-4,5,6,7-tetrahydro-1-benzofuran-2-carboxylic acid], in test [1], the EC50 was above 1 µM. Besides, the Ki in test [2] was above 1 µM.

In the case of `CC1(C)CCC(C)(C)c2cc(Cc3csc(/C=C/C(=O)O)c3)ccc21` [Example 18, (2E)-3-{4-[(5,5,8,8-Tetramethyl-5,6,7,8-tetrahydro-2-naphthalenyl)methyl]-2-thienyl}-2-propenoic acid], the EC50 in test [1] was above 1 µM. For the same compound, the Ki in test [2] was above 1 µM.
